# Assay results from patent US11053204B2, “Pyrimidinyloxy benzene derivatives as herbicides” (FMC Corporation, priority 2015, dated 2021).
# How the values were obtained:
# Assay type in all cases: in vivo
# [1] = system: pigweed (Amaranthus retroflexus); assay: Test A postemergence, visual injury rating; details: 0 to 100 scale, 0 is no effect, 100 is complete control, approximately 10 days
# Outline: (§1)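 Compounds in non-phytotoxic solvent with surfactant applied as soil spray preemergence, or postemergence to plants 2-10 cm at one- to two-leaf stage, in loam/sand. After approximately 10 days in greenhouse, injury rated visually versus untreated controls, 0 (no effect) to 100 (complete control).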
# [2] = system: kochia (Kochia scoparia); assay: Test A postemergence, visual injury rating; details: 0 to 100 scale, 0 is no effect, 100 is complete control, approximately 10 days
# Outline: as §1
# [3] = system: giant foxtail (Setaria faberii); assay: Test A postemergence, visual injury rating; details: 0 to 100 scale, 0 is no effect, 100 is complete control, approximately 10 days
# Outline: as §1
# [4] = system: ragweed (common ragweed, Ambrosia elatior); assay: Test A postemergence, visual injury rating; details: 0 to 100 scale, 0 is no effect, 100 is complete control, approximately 10 days
# Outline: as §1
# [5] = system: Italian ryegrass (Lolium multiflorum); assay: Test A postemergence, visual injury rating; details: 0 to 100 scale, 0 is no effect, 100 is complete control, approximately 10 days
# Outline: as §1
# [6] = system: corn (Zea mays); assay: Test A postemergence, visual injury rating; details: 0 to 100 scale, 0 is no effect, 100 is complete control, approximately 10 days
# Outline: as §1
# [7] = system: wheat (Triticum aestivum); assay: Test A postemergence, visual injury rating; details: 0 to 100 scale, 0 is no effect, 100 is complete control, approximately 10 days
# Outline: as §1
# [8] = system: ducksalad (Heteranthera limosa); assay: Test B flooded paddy test, plant response rating; details: 250 g ai/ha; Flood; scale of 0 to 100 where 0 is no effect and 100 is complete control; 13 to 15 days
# Outline: (§2)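 Pots were flooded to 3 cm above the soil surface at treatment, compound applied directly to the paddy water, and that depth held throughout. Plants were kept in a greenhouse for 13 to 15 days, then visually rated against untreated controls.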
# [9] = system: rice (Oryza sativa); assay: Test B flooded paddy test, plant response rating; details: 250 g ai/ha; Flood; scale of 0 to 100 where 0 is no effect and 100 is complete control; 13 to 15 days
# Outline: as §2
# [10] = system: barnyardgrass (Echinochloa crus-galli); assay: Test B flooded paddy test, plant response rating; details: 250 g ai/ha; Flood; scale of 0 to 100 where 0 is no effect and 100 is complete control; 13 to 15 days
# Outline: as §2
# [11] = system: sedge, umbrella (small-flower umbrella sedge, Cyperus difformis); assay: Test B flooded paddy test, plant response rating; details: 250 g ai/ha; Flood; scale of 0 to 100 where 0 is no effect and 100 is complete control; 13 to 15 days
# Outline: as §2
# [12] = system: kochia (Kochia scoparia); assay: Test C postemergence, plant response rating; details: for Kochia plant response rating: scale 0 to 100 (0 no effect, 100 complete control)
# Outline: (§3)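 Preemergence: seeds sown in loam–sand blend or silt loam and sprayed with test chemicals in a non-phytotoxic surfactant-containing solvent. Postemergence: potted plants at 2–18 cm (1–4-leaf stage) sprayed with the same formulation. After 13–15 d in greenhouse, visual rating versus controls on 0 (no effect) to 100 (complete control) scale.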
# [13] = system: ragweed (common ragweed, Ambrosia elatior); assay: Test C postemergence, plant response rating; details: for Ragweed plant response rating: scale 0 to 100 (0 no effect, 100 complete control)
# Outline: as §3
# [14] = system: velvetleaf (Abutilon theophrasti); assay: Test C postemergence, plant response rating
# Outline: as §3
# [15] = system: waterhemp (common waterhemp, Amaranthus rudis); assay: Test C postemergence, plant response rating
# Outline: as §3
# [16] = system: morningglory (Ipomoea coccinea); assay: Test C postemergence, plant response rating; details: for Morningglory plant response rating: scale 0 to 100 (0 no effect, 100 complete control)
# Outline: as §3
# [17] = system: barnyardgrass (Echinochloa crus-galli); assay: Test C postemergence, plant response rating; details: for Plant response rating, Barnyardgrass: scale 0 to 100; for Barnyardgrass plant response rating: scale 0 to 100 (0 no effect, 100 complete control)
# Outline: as §3
# [18] = system: oilseed rape (Brassica napus); assay: Test C postemergence, plant response rating; details: for Oilseed Rape plant response rating: scale 0 to 100 (0 no effect, 100 complete control)
# Outline: as §3
# [19] = 125 g ai/ha, scale 0 to 100 (0 no effect, 100 complete control)
compound,measurement,setting,value
O=C(CCC(F)(F)F)c1c(Br)cccc1Oc1ncc(Cl)cn1 [Compound 92],Pigweed plant response rating,[1]; 31 g ai/ha,100
same,Pigweed plant response rating,[1]; 125 g ai/ha,100
same,Kochia plant response rating,[2]; 31 g ai/ha,100
same,Kochia plant response rating,[2]; 125 g ai/ha,100
same,"Foxtail, Giant plant response rating",[3]; 31 g ai/ha,50
same,"Foxtail, Giant plant response rating",[3]; 125 g ai/ha,100
same,Ragweed plant response rating,[4]; 31 g ai/ha,0
same,Ragweed plant response rating,[4]; 125 g ai/ha,20
same,"Ryegrass, Italian plant response rating",[5]; 31 g ai/ha,0
same,"Ryegrass, Italian plant response rating",[5]; 125 g ai/ha,50
same,Corn plant response rating,[6]; 31 g ai/ha,10
same,Corn plant response rating,[6]; 125 g ai/ha,40
same,Wheat plant response rating,[7]; 31 g ai/ha,0
same,Wheat plant response rating,[7]; 125 g ai/ha,20
same,"Plant response rating, Ducksalad",[8],100
same,"Plant response rating, Rice",[9],0
same,"Plant response rating, Barnyardgrass",[10],25
same,"Plant response rating, Sedge, Umbrella",[11],100
same,"Plant response rating, Kochia","[12]; 16 g ai/ha, scale of 0 to 100",100
same,"Plant response rating, Kochia","[12]; 31 g ai/ha, scale 0 to 100",100
same,Kochia plant response rating,[12]; 62 g ai/ha,100
same,Kochia plant response rating,[12]; 125 g ai/ha,100
same,"Plant response rating, Ragweed","[13]; 16 g ai/ha, scale of 0 to 100",35
same,"Plant response rating, Ragweed","[13]; 31 g ai/ha, scale 0 to 100",40
same,Ragweed plant response rating,[13]; 62 g ai/ha,60
same,Ragweed plant response rating,[13]; 125 g ai/ha,70
same,"Plant response rating, Velvetleaf","[14]; 16 g ai/ha, scale of 0 to 100",35
same,"Plant response rating, Velvetleaf","[14]; 31 g ai/ha, scale 0 to 100",50
same,Velvetleaf plant response rating,[14]; [19],85
same,"Plant response rating, Waterhemp","[15]; 16 g ai/ha, scale of 0 to 100",80
same,"Plant response rating, Waterhemp","[15]; 31 g ai/ha, scale 0 to 100",85
same,Waterhemp plant response rating,[15]; [19],100
same,"Plant response rating, Morningglory","[16]; 16 g ai/ha, scale of 0 to 100",20
same,"Plant response rating, Morningglory","[16]; 31 g ai/ha, scale 0 to 100",85
same,Morningglory plant response rating,[16]; 62 g ai/ha,65
same,Morningglory plant response rating,[16]; 125 g ai/ha,85
same,"Plant response rating, Barnyardgrass",[17]; 16 g ai/ha,10
same,"Plant response rating, Barnyardgrass",[17]; 31 g ai/ha,10
same,Barnyardgrass plant response rating,[17]; 62 g ai/ha,15
same,Barnyardgrass plant response rating,[17]; 125 g ai/ha,20
same,"Plant response rating, Oilseed Rape","[18]; 16 g ai/ha, scale of 0 to 100",5
same,"Plant response rating, Oilseed Rape","[18]; 31 g ai/ha, scale 0 to 100",50
same,Oilseed Rape plant response rating,[18]; 62 g ai/ha,50
same,Oilseed Rape plant response rating,[18]; 125 g ai/ha,70
